In paper PMC2957562 (Bioorganic & medicinal chemistry letters, 2010):

How the values were obtained:
HIV-1 Integrase [1] = biological target: T1, HIV-1 Integrase (Human immunodeficiency virus type 1 group M subtype B, UniProt P04585); assay: HIV-1 integrase 3′-processing inhibition; type: biochemical
HIV-1 Integrase [2] = biological target: T1, HIV-1 Integrase; assay: HIV-1 integrase strand transfer inhibition; type: biochemical

With O=C1/C(=C\c2ccc(O)c(OCc3ccc(F)cc3)c2)C(C(F)(F)F)=NN1c1cccc(Br)c1 [Compound 4f] the IC50 (HIV-1 Integrase [1]) was greater than 100 µM.

In the case of COc1ccc(/C=C2\C(=O)N(c3cccc(Br)c3)N=C2C(F)(F)F)c(OC)c1OC [Compound 4b], the IC50 (HIV-1 Integrase [1]) is reported as greater than 100 µM and the IC50 (HIV-1 Integrase [2]) is reported as greater than 100 µM.

COc1ccc(/C=C2\C(=O)N(c3ccc(C(=O)O)cc3)N=C2C(F)(F)F)cc1OCc1ccc(F)cc1 [Compound 5m] was tested, and the IC50 (HIV-1 Integrase [1]) was greater than 100 µM.

Work on COc1ccc(/C=C2\C(=O)N(c3ccc(I)cc3)N=C2C(F)(F)F)cc1OCc1ccc(F)cc1 [Compound 56l] yielded an IC50 (HIV-1 Integrase [1]) greater than 100 µM.

In the case of CCC(=O)OC1=NN(c2cccc(Br)c2)C(=O)/C1=C\c1ccc(OC)c(OCc2ccc(F)cc2)c1 [Compound 6g], the IC50 (HIV-1 Integrase [1]) is reported as greater than 100 µM.

In the case of COc1ccc(/C=C2\C(=O)N(c3cccc(Br)c3)N=C2COC(C)=O)cc1OCc1ccc(F)cc1 [Compound 6f], the IC50 (HIV-1 Integrase [1]) is reported as greater than 100 µM.

COc1ccc(/C=C2\C(=O)N(c3cccc(I)c3)N=C2C(F)(F)F)cc1OCc1ccc(F)cc1 [Compound 5i] showed an IC50 (HIV-1 Integrase [1]) greater than 100 µM.

With O=C(O)C1=NN(c2cccc([N+](=O)[O-])c2)C(=O)/C1=C\c1ccc(OCc2ccc(F)cc2)c(O)c1 [Compound 14d] the “Strand Transfer IC50” value (HIV-1 Integrase [2]; in vitro, strand transfer step) was “single-digit micromolar”.

Compound COc1ccc(/C=C2\C(=O)N(c3cccc(F)c3)N=C2C(F)(F)F)cc1OCc1ccc(F)cc1 [Compound 5f] has an IC50 (HIV-1 Integrase [1]) greater than 100 µM.

In the case of COc1ccc(/C=C2\C(=O)N(c3cccc(-c4ccccc4)c3)N=C2C(F)(F)F)cc1OCc1ccc(F)cc1 [Compound 5d], the IC50 (HIV-1 Integrase [1]) is reported as greater than 100 µM.

COc1ccc(/C=C2\C(=O)N(c3ccccc3)N=C2C(F)(F)F)cc1OCc1ccc(F)cc1 [Compound 5a] was tested, and the IC50 (HIV-1 Integrase [1]) was greater than 100 µM and the IC50 (HIV-1 Integrase [2]) was greater than 100 µM.

With COc1ccc(/C=C2\C(=O)N(c3cccc(Br)c3)N=C2NC(=O)C(F)(F)F)cc1OCc1ccc(F)cc1 [Compound 6d] the IC50 (HIV-1 Integrase [1]) was greater than 100 µM and the IC50 (HIV-1 Integrase [2]) was greater than 100 µM.

In the case of CCC1=NN(c2cccc(Br)c2)C(=O)/C1=C\c1ccc(OC)c(OCc2ccc(F)cc2)c1 [Compound 6b], the IC50 (HIV-1 Integrase [1]) is reported as greater than 100 µM and the IC50 (HIV-1 Integrase [2]) is reported as greater than 100 µM.

Compound COc1ccc(/C=C2\C(=O)N(c3cc(Cl)cc(Cl)c3)N=C2C(F)(F)F)cc1OCc1ccc(F)cc1 [Compound 5j] has an IC50 (HIV-1 Integrase [1]) greater than 100 µM.

For COc1ccc(/C=C2\C(=O)N(c3nc4ccccc4s3)N=C2C(F)(F)F)cc1OCc1ccc(F)cc1 [Compound 5o], the IC50 (HIV-1 Integrase [1]) was greater than 100 µM.

For COc1ccc(/C=C2\C(=O)N(c3cccc(C)c3)N=C2C(F)(F)F)cc1OCc1ccc(F)cc1 [Compound 5b], the IC50 (HIV-1 Integrase [1]) was greater than 100 µM and the IC50 (HIV-1 Integrase [2]) was greater than 100 µM.

For COc1ccc(/C=C2\C(=O)N(c3cccc(Br)c3)N=C2OC(C)=O)cc1OCc1ccc(F)cc1 [Compound 6e], the IC50 (HIV-1 Integrase [1]) was greater than 100 µM.

With COc1ccc(/C=C2\C(=O)N(c3ccc(NS(C)(=O)=O)cc3)N=C2C(F)(F)F)cc1OCc1ccc(F)cc1 [Compound 5n] the IC50 (HIV-1 Integrase [1]) was greater than 100 µM and the IC50 (HIV-1 Integrase [2]) was greater than 100 µM.

Compound COc1ccc(/C=C2\C(=O)N(c3cccc(Br)c3)N=C2C)cc1OCc1ccc(F)cc1 [Compound 6a] has an IC50 (HIV-1 Integrase [1]) greater than 100 µM and an IC50 (HIV-1 Integrase [2]) greater than 100 µM.
